# Test system: L. maculans
# Assay: Inhibition of growth of L. maculans by other strains and polymyxins (qualitative)
# Type: cell-based, Leptosphaeria maculans
substance,measurement,value
polymyxins,inhibitory effect against L. maculans,ineffective

# — patent publication US6602500B1, “Paenibacillus polymyxa strain ATCC 202127 for biocontrol of bacteria and fungi” (The Governors of the University of Alberta, priority 1998, dated 2003)
